Measured values as given in ChEMBL document CHEMBL1143776, “Thioimidoyl furanosides as first inhibitors of the alpha-L-arabinofuranosidase AbfD3” (Bioorg Med Chem Lett, 2007).

assay: Inhibition of AbfD3

IC50, < 100 µM:
OC[C@@H]1O[C@@H](Sc2ncccn2)[C@H](O)[C@H]1O
OC[C@@H]1O[C@@H](Sc2nc3ccccc3[nH]2)[C@H](O)[C@H]1O
OC[C@@H]1O[C@@H](Sc2nccs2)[C@H](O)[C@H]1O
OC[C@@H]1O[C@@H](Sc2nc3ccccc3s2)[C@H](O)[C@H]1O
OC[C@@H]1O[C@@H](Sc2ccccn2)[C@H](O)[C@H]1O
